Measurements published in US9726659B2, “CMPF as a biomarker for diabetes and associated methods” (The Governing Council of the University of Toronto, priority 2012, dated 2017).

Tests used:
[1] = Plasma CMPF after IP injection; assay type: in vivo, CD1 mice; conditions: for up to 2 hours but not at 6 hours post-injection, n=4/group
Method: CD1 mice were injected IP with either vehicle control (black) or CMPF (white). A) Plasma samples were taken at 10, 30, 60, 120 and 360 minutes post-IP injection and assayed for CMPF. […] Over the 3-day course of IP injections, mice were monitored for body weight (B), random-fed blood glucose (C) and plasma insulin (C). There was no difference in any of these parameters. Following 3 consecutive days of CMPF injections, mice were fasted for 14 hrs and OGTTs were performed.

human islets = test: Total insulin content in human islets; assay type: cell-based; conditions: 200 uM, 24 hrs, vs vehicle
Method: (§1) In the absence of apoptosis and necrosis, CMPF must be impairing GSIS by causing beta cell dysfunction. First, the effect of CMPF treatment on insulin biosynthesis was investigated to determine if insulin is available to be released upon stimulation. MIN6, murine and human islets were treated with vehicle control, 20 uM and 200 uM CMPF for 4 hrs (MIN6) or 24 hrs (islets), and total insulin content measured. […] Lower total insulin content may be due to either defective insulin processing from proinsulin to mature insulin, or insufficient insulin transcription. To determine the mechanism through which CMPF is reducing total insulin content, quantitative PCR (qPCR) was performed on RNA that was isolated from murine islets treated with either vehicle control or 200 uM CMPF for 24 hrs.

primary human islets = test: Glucose-stimulated insulin secretion in primary human islets; assay type: cell-based; conditions: 200 uM, 24 hour pre-incubation, vs vehicle and 20 uM
Method: (§2) LG=2.8 mM glucose, HG=16.7 mM glucose, KCl=16.7 mM glucose+30 mM KCl. *p<0.05.
(§3) Since beta cell failure is a major underlying cause of both GDM and T2D, the effect of increased CMPF on beta cell function was investigated both in vitro and in vivo. Using physiological concentrations of CMPF (20 uM and 200 uM, as observed in our NGT-pregnant and GDM-pregnant samples respectively (FIG. 2)), as well as a vehicle control (EtOH), its effect was studied on glucose-stimulated insulin secretion (GSIS) and insulin secretion in response to direct depolarization using the secretagogue KCl in an immortalized murine beta cell line (MIN6), as well as primary isolated human and murine islets (FIG. 3A). […] Therefore, high physiologically relevant levels of CMPF impair GSIS.

primary murine islets = test: Glucose- and KCl-stimulated insulin secretion in primary murine islets; assay type: cell-based; conditions: 200 uM
Method: as §2, §3

murine islets = test: Total insulin content in murine islets; assay type: cell-based; conditions: 200 uM
Method: Murine islets were treated for 24 hrs with vehicle control (0 CMPF), 20 uM (20 CMPF), or 200 uM (200 CMPF) CMPF, and assessed for total insulin content and mRNA expression. […] Decreased expression of insulin processing enzymes PCSK1, 2 and CpE (F), (G), (H) indicate that CMPF may also impair post-translational insulin processing. Finally, CMPF causes decreased expression of the beta cell glucose transporter GLUT2, and GCK, the rate-limiting enzyme critical for glucose metabolism (I) and (J), perhaps impairing glucose sensing and metabolism. In all cases n=4, *P<0.05.
as §1

MIN6 cells [2] = test: Glucose- and KCl-stimulated insulin secretion in MIN6 cells; assay type: cell-based, murine; conditions: 200 uM
Method: as §2, §3

MIN6 cells [3] = test: Annexin V and propidium iodide staining for apoptosis and necrosis; assay type: cell-based, murine; conditions: 20 uM or 200 uM, 4 hrs
Method: A) MIN6 cells were treated for 4 hrs with 0 uM (EtOH vehicle control), 20 uM or 200 uM CMPF prior to being loaded with Annexin V and propidium iodide fluorescent dyes, and counterstained with Hoechst dye. […] B) Primary CD1 islets were dispersed and treated with vehicle control (0 CMPF, black), 20 uM CMPF (grey), or 200 uM CMPF (white) for 48 hours, then stained with Annexin V, Propidium Iodide and Hoechst dye. Quantification of double positive staining was assessed by an Arrayscan VTI HCS reader.
Next the mechanism underlying the observed impairment in GSIS following treatment with CMPF was investigated. To determine whether CMPF was inhibiting GSIS by inducing beta cell apoptosis, Annexin V and Propidium Iodide staining was performed in MIN6 cells treated with vehicle (EtOH), 20 uM or 200 uM CMPF for 4 hrs to look for apoptosis and necrosis respectively. […] MIN6 cells treated with 5 mM H2O2 for 3 hrs were used as a positive control (FIG. 4).

mouse islets = test: ROS accumulation in isolated islets (mitoSOX red, CM-H2-DCFDA); assay type: cell-based; conditions: 200 μM, after 4 and 24 hrs of treatment
Method: A) Proinsulin in the media of 24 hr treated islets (n=4/group). B) Mitochondrial membrane potential (MMP) following acute addition of vehicle control or 200 μM of CMPF (N=3/group). C) ROS levels in 4- and 24-hour treated mouse islets with representative images (N=10-15 islets/mouse from 4 mice/group). D) Expression of antioxidant genes Cat and (e) Ucp2 (n=4/group). F) ROS accumulation in 24 hr-treated islets treated with 500 μM NAC (n=10 islets/mouse from 4 mice/group). G) GSIS and (h) total insulin content from 24 hr-treated islets co-treated with 500 μM NAC (n=4/group). Western blots showing (i) Ser9 phosphorylation of GSK3β, (j) Ser473 phosphorylation of AKT (n=3/group). K) Immunofluorescent staining showing nuclear translocation of FOXO1 and (l) PDX1 with CMPF and NAC treatment (n=3-6). Quantification of nuclear percentage of (m) FOXO1 and (n) PDX1 based on immunofluorescent staining with CMPF and NAC treatment. O) Western blots showing protein abundance of PDX1 and FOXO1. Values are mean+/−SEM. Student's t-test (a, c-j, m-o), one-way ANOVA (b). *P<0.05, **P<0.01, ***P<0.001.
The level of superoxide and H2O2 were determined using mitoSOX red and 2′,7′-dichlorodihydro fluorescein diacetate (CM-H2-DCFDA) respectively (Molecular Probes, Invitrogen, Canada) in isolated islets treated with either vehicle control or 200 μM CMPF for 4 or 24 hours, as previously described (Lee et al. 2009). […]

**Q.** With `CCCc1oc(CCC(=O)O)c(C(=O)O)c1C` [CMPF, 3-carboxy-4-methyl-5-propyl-2-furanpropanoic acid] as the compound, how does the “plasma CMPF level after IP injection” value [1] read?
**A.** significantly elevated

**Q.** And the total insulin content (human islets)?
**A.** significantly reduced

**Q.** What about the GSIS (primary human islets) of the same compound?
**A.** impairs GSIS

**Q.** And the GSIS (primary murine islets; 24 hour pre-incubation, vs vehicle and 20 uM)?
**A.** impairs GSIS

**Q.** And the “glucose- and KCl-stimulated insulin secretion” value (primary murine islets; CD1 mouse islets, 24 hours)?
**A.** significantly impaired

**Q.** And the “total DNA” value (murine islets)?
**A.** absence of changes

**Q.** What about the total insulin content (murine islets; 24 hrs, vs vehicle) of the same compound?
**A.** significantly reduced

**Q.** What about the KCl-stimulated insulin secretion (MIN6 cells [2]; 4 hour pre-incubation) of the same compound?
**A.** significantly impairs

**Q.** What about the “glucose-stimulated insulin secretion (GSIS)” value (MIN6 cells [2]; 4 hour pre-treatment, vs 20 uM and vehicle) of the same compound?
**A.** significantly impaired

**Q.** And the “Annexin V and propidium iodide staining (apoptosis, necrosis)” value (MIN6 cells [3])?
**A.** No significant staining

**Q.** What about the “increase in ROS over controls” value (mouse islets) of the same compound?
**A.** 2 fold
